Patent publication US20250115595A1, “INHIBITORS OF HYPOXIA-INDUCIBLE FACTORS” (The Johns Hopkins University, priority 2021, published 2025)

Columns and labels:
[1] = test system: HIF transcriptional activity; experiment: Luciferase reporter assay (FLuc/RLuc) in hypoxic Hep3B-c1 cells; format: cell-based; conditions: Homo sapiens, FLuc/RLuc ratio, 1% O2, 24 hours
Protocol: The NCI CellMiner database contains expression data on 25,698 mRNAs in 60 human cancer cell lines that were exposed to 21,770 chemical compounds (Reinhold W C, et. al., Cancer Res. 2012; 72(14):3499-3511). The CellMiner database was interrogated for compounds that induced changes in gene expression highly correlated with those induced by acriflavine, but would be structurally unrelated to acriflavine. Compounds that satisfied these criteria were analyzed in Hep3B-c1 cells (Zhang H. et. al., Proc Natl Acad Sci USA. 2008; 105(50):19579-19586), which are stably transfected with: HIF dependent reporter plasmid p2.1, in which firefly luciferase (FLuc) coding sequences are located downstream from a hypoxia response element (HRE) and a basal SV40 promoter; and control reporter pSVR, in which Renilla luciferase (RLuc) coding sequences are downstream of the basal SV40 promoter only (FIG. 1A).
Hep3B-c1 cells (Zhang 2008), which are stably co-transfected with reporter plasmids p2.1, a hypoxia-inducible firefly luciferase reporter gene containing a hypoxia response element (HRE), and pSVR, a constitutively expressed Renilla luciferase reporter gene, were seeded on 24-well plates. Cells were treated with compounds the following day and exposed to 20% or 1% O2 for 24 hours. For transient transfection, cells were seeded, transfected with the listed plasmids and compounds, and exposed to 20% or 1% O2 for 24 hours. FLuc/RLuc ratios were determined using the Dual Luciferase Reporter Assay System (Promega) and the VICTOR Nivo plate reader (PerkinElmer).

OIR mice = experiment: OIR mouse model, intraperitoneal dosing; format: in vivo
Protocol: The ability of 32-143D to inhibit ischemia-induced retinal neovascularization was evaluated using the oxygen-induce retinopathy (OIR) model for retinal neovascularization in ischemic retinal diseases, such as retinopathy of prematurity, proliferative diabetic retinopathy, ischemic retinal vein occlusions, or sickle cell retinopathy. Postnatal day 7 (P7) newborn C57BL/6 pups were exposed to hyperoxia (75% O2) for 5 consecutive days before being returned to room air at P12. Beginning at P13, pups were treated with […] IP injections with 32-134D at 20 mg/kg or with vehicle control. 24 hours after the fifth IP injection, at P17, retinal flat mounts were stained with isolectin-B4 to examine the development of retinal neovascularization.
OIR mouse model: OIR experiments were performed as previously described (M. Rodrigues et al., 2013, Diabetes 62, 3863-3873). Briefly, C57BL/6 mice were placed in 75% O2 on P7. On P12, the mice were returned to room air and administered either by IP injection (digoxin and test compound) or by intravitreal injection. Mice with body weight less than 6 g at P17 were excluded from analysis. The data were collected from both males and females and the results combined, as there was no apparent difference between sexes. Representative images for selected time points from a minimum of three independent experiments are shown. Data from 3-8 pups were obtained at each time point.

[2] = daily IP injections 20 mg/kg from P13, P17

Brc1ccc2c(-c3csc(-c4c[nH]c5c(Br)cccc45)n3)c[nH]c2c1 [Compound 32-134D, 4-(6-bromo-1H-indol-3-yl)-2-(7-bromo-1H-indol-3-yl)thiazole]
IC50 [1]: 2500 nM
area of avascular retina (OIR mice; [2]): not significantly different
retinal neovascularization (OIR mice; [2]): significant decrease in neovascularization
mRNA expression of key HIF-regulated vasoactive mediators (OIR mice; five consecutive (P12-P16) IP injections, 20 mg/kg, P17): marked reduction
HIF-1α and HIF-2α protein accumulation in retina (OIR mice; single IP injection, as little as 20 mg/kg, P13 and P14): reduction
